These results are taken from patent publication US11834420B2, “Preparation method of pyrimidinylthio-benzoate oxime ester compound and application thereof as herbicide” (CHANGZHOU UNIVERSITY, priority 2019, dated 2023).

For one data set, the system named is Echinochloa crusgalli. Briefly: Pot experiment, indoor herbicidal activity (stem and leaf spray). The conditions noted are these: fresh weight inhibition rate, 45 g a.i/hm^2, stem and leaf spray, 21st day after applying. The data set is classed as in vivo. As for the experimental part:
(§1) 20 mg of the pyrimidinylthio-benzoate compound active pharmaceutical ingredients (APIs) is weighed with a 1/10,000 analytical balance, dissolved with acetone (or DMF or DMSO), and diluted with a 0.1% Tween-80 aqueous solution to a concentration of 45 g a.i/hm^2.
(§2) The test soil is quantitatively filled to 4/5 of the pot, and subirrigation method is adopted at a bottom of the pot to moisten the soil. The test weed seeds are sown on the soil surface and cultivated in a greenhouse. When the gramineous weeds grow to 3-4 leaf stage and broadleaf weeds grow to 4-6 leaf stage, a stem and leaf spray method is used for treatment. On the 21st day after applying the herbicide, the above-ground part is taken to weigh the fresh weight, and the fresh weight inhibition rate is calculated according to the formula. Fresh weight inhibition rate (%)=(control fresh weight−treated fresh weight)/control fresh weight×100%
(§3) Pyrithiobac-sodium is used as a positive control. The herbicidal activity of the target compound is screened. The dosage refers to the applied dosage of the pyrithiobac-sodium in the cotton field, i.e., 45 g a.i/hm^2, and the stem and leaf spray method is used for treatment.

The subject of the next data set is Portulaca oleracea. The description is as above. The data set is classed as in vivo. The conditions noted are these: fresh weight inhibition rate, 45 g a.i/hm^2, stem and leaf spray, 21st day after applying. On the procedure:
as §1, §2, §3

The test system of the next data set is Setaria viridis. The data set is described as above. The data set is classed as in vivo. Conditions: fresh weight inhibition rate, 45 g a.i/hm^2, stem and leaf spray, 21st day after applying. As for the experimental part: as §1, §2, §3
The subject of the next data set is Eleusine indica. The data set is described as above. Conditions: fresh weight inhibition rate, 45 g a.i/hm^2, stem and leaf spray, 21st day after applying. The data set is classed as in vivo. As for the experimental part:
as §1, §2, §3

The subject of a further data set is Amaranthus retroflexus. Described as above. The conditions noted are these: fresh weight inhibition rate, 45 g a.i/hm^2, stem and leaf spray, 21st day after applying. The data set is classed as in vivo. On the procedure:
as §1, §2, §3

For a further data set, the system named is Chenopodium album. The description is as above. The data set is classed as in vivo. Conditions: fresh weight inhibition rate, 45 g a.i/hm^2, stem and leaf spray, 21st day after applying. As for the experimental part: as §1, §2, §3

With `COc1cc(OC)nc(Sc2cccc(Cl)c2C(=O)O/N=C(\C)c2ccc(F)cc2)n1` [L, (E)-1-(4-fluorophenyl)ethan-1-one O-(2-chloro-6((4,6-dimethoxypyrimidin-2-yl)thio)benzoyl) oxime], the melting point was in the range of 102 to 105 °C. Besides, the “Inhibition rate (%) Echinochloa crusgalli” value with Echinochloa crusgalli is given as 100%. Also, the “Inhibition rate (%) Portulaca oleracea” value in the data set with Portulaca oleracea was 90.5%. For the same compound, the “Inhibition rate (%) Setaria viridis” value in the data set with Setaria viridis stood at 75.4%. Moreover, the “Inhibition rate (%) Eleusine indica” value in the data set with Eleusine indica was 87.0%. Further, the “Inhibition rate (%) Amaranthus retroflexus” value in the data set on Amaranthus retroflexus is 100%. Moreover, the “Inhibition rate (%) Chenopodium album” value in the data set with Chenopodium album is on record as 100%.

For `COc1cc(OC)nc(Sc2cccc(Cl)c2C(=O)O/N=C(\C)c2ccccc2C)n1` [A, (E)-1-(o-tolyl)ethan-1-one O-(2-chloro-6-((4,6-dimethoxypyrimidin-2-yl)thio)benzoyl) oxime], the melting point lay within 108 to 111 °C. In addition, in the data set with Echinochloa crusgalli, the “Inhibition rate (%) Echinochloa crusgalli” value is given as 35.6%. The “Inhibition rate (%) Portulaca oleracea” value with Portulaca oleracea was 35.4%. Besides, the “Inhibition rate (%) Setaria viridis” value in the data set on Setaria viridis is reported as 31.3%. The “Inhibition rate (%) Eleusine indica” value with Eleusine indica came to 67.6%. Besides, in the data set with Amaranthus retroflexus, the “Inhibition rate (%) Amaranthus retroflexus” value was 92.0%. In addition, the “Inhibition rate (%) Chenopodium album” value with Chenopodium album was 100%.

In turn, `COc1cc(OC)nc(Sc2cccc(Cl)c2C(=O)O/N=C(\C)c2cccc(C(F)(F)F)c2)n1` [E, (E)-1-(3-(trifluoromethyl)phenyl)ethan-1-one O-(2-chloro-6-((4,6-dimethoxypyrimidin-2-yl)thio)benzoyl)oxime] showed a melting point of 81 to 86 °C. For the same compound, in the data set on Echinochloa crusgalli, the “Inhibition rate (%) Echinochloa crusgalli” value is listed as 79.5%. Further, in the data set on Portulaca oleracea, the “Inhibition rate (%) Portulaca oleracea” value was 64.6%. The “Inhibition rate (%) Setaria viridis” value in the data set with Setaria viridis amounted to 27.8%. In the data set with Eleusine indica, the “Inhibition rate (%) Eleusine indica” value is 37.0%. Besides, the “Inhibition rate (%) Amaranthus retroflexus” value in the data set on Amaranthus retroflexus was 82.4%. For the same compound, the “Inhibition rate (%) Chenopodium album” value in the data set on Chenopodium album worked out at 82.4%.

In the case of `COc1cc(OC)nc(Sc2cccc(Cl)c2C(=O)O/N=C(\C)c2ccc(C)cc2)n1` [C, (E)-1-(p-tolyl)ethan-1-one O-(2-chloro-6-((4,6-dimethoxypyrimidin-2-yl)thio)benzoyl) oxime], the melting point was 115 to 119 °C. The “Inhibition rate (%) Echinochloa crusgalli” value in the data set on Echinochloa crusgalli amounted to 37.5%. Further, the “Inhibition rate (%) Portulaca oleracea” value in the data set with Portulaca oleracea is listed as 40.9%. Besides, the “Inhibition rate (%) Setaria viridis” value with Setaria viridis stood at 39.3%. In the data set with Eleusine indica, the “Inhibition rate (%) Eleusine indica” value is 52.5%. The “Inhibition rate (%) Amaranthus retroflexus” value with Amaranthus retroflexus was found to be 90.4%. In addition, the “Inhibition rate (%) Chenopodium album” value with Chenopodium album was 95.8%.

Consider `COc1cc(OC)nc(Sc2cccc(Cl)c2C(=O)O/N=C(\C)c2ccccc2F)n1` [J, (E)-1-(2-fluorophenyl)ethan-1-one O-(2-chloro-6-((4,6-dimethoxypyrimidin-2-yl)thio)benzoyl) oxime], for which the melting point fell in the range of 87 to 91 °C. Moreover, the “Inhibition rate (%) Echinochloa crusgalli” value in the data set on Echinochloa crusgalli came out at 100%. Besides, in the data set with Portulaca oleracea, the “Inhibition rate (%) Portulaca oleracea” value is listed as 90.2%. In addition, the “Inhibition rate (%) Setaria viridis” value with Setaria viridis amounted to 77.2%. In addition, in the data set on Eleusine indica, the “Inhibition rate (%) Eleusine indica” value turned out to be 90.3%. The “Inhibition rate (%) Amaranthus retroflexus” value in the data set on Amaranthus retroflexus is given as 100%. The “Inhibition rate (%) Chenopodium album” value with Chenopodium album was found to be 98.4%.

Turning to `COc1cc(OC)nc(Sc2cccc(Cl)c2C(=O)O/N=C(\C)c2ccccc2C(F)(F)F)n1` [D, (E)-1-(2-(trifluoromethyl)phenyl)ethan-1-one O-(2-chloro-6-((4,6-dimethoxypyrimidin-2-yl)thio)benzoyl)oxime], the melting point is 82 to 85 °C. Further, the “Inhibition rate (%) Echinochloa crusgalli” value with Echinochloa crusgalli came out at 78.3%. In addition, the “Inhibition rate (%) Portulaca oleracea” value in the data set on Portulaca oleracea is 69.2%. In addition, the “Inhibition rate (%) Setaria viridis” value in the data set with Setaria viridis came to 33.7%. Moreover, the “Inhibition rate (%) Eleusine indica” value in the data set on Eleusine indica came to 52.4%. Further, the “Inhibition rate (%) Amaranthus retroflexus” value with Amaranthus retroflexus is 80.2%. Further, in the data set on Chenopodium album, the “Inhibition rate (%) Chenopodium album” value is 89.6%.

On to `COc1cc(OC)nc(Sc2cccc(Cl)c2C(=O)O/N=C(\C)c2ccc(C(F)(F)F)cc2)n1` [F, (E)-1-(4-(trifluoromethyl)phenyl)ethan-1-one O-(2-chloro-6-((4,6-dimethoxypyrimidin-2-yl)thio)benzoyl)oxime], for which the melting point was in the range of 86 to 90 °C. The “Inhibition rate (%) Echinochloa crusgalli” value in the data set with Echinochloa crusgalli was determined as 100%. Besides, the “Inhibition rate (%) Portulaca oleracea” value in the data set on Portulaca oleracea was determined as 84.4%. For the same compound, in the data set with Setaria viridis, the “Inhibition rate (%) Setaria viridis” value is 56.0%. For the same compound, the “Inhibition rate (%) Eleusine indica” value in the data set with Eleusine indica was 80.7%. In addition, in the data set with Amaranthus retroflexus, the “Inhibition rate (%) Amaranthus retroflexus” value came to 97.5%. In addition, the “Inhibition rate (%) Chenopodium album” value in the data set on Chenopodium album was determined as 85.1%.

For `COc1cc(OC)nc(Sc2cccc(Cl)c2C(=O)O/N=C(\C)c2cccc(F)c2)n1` [K, (E)-1-(3-fluorophenyl)ethan-1-one O-(2-chloro-6-((4,6-dimethoxypyrimidin-2-yl)thio)benzoyl) oxime], the melting point was 103 to 107 °C. In addition, the “Inhibition rate (%) Echinochloa crusgalli” value in the data set on Echinochloa crusgalli stood at 100%. In addition, the “Inhibition rate (%) Portulaca oleracea” value in the data set with Portulaca oleracea turned out to be 93.3%. Besides, in the data set on Setaria viridis, the “Inhibition rate (%) Setaria viridis” value came to 72.9%. In addition, in the data set with Eleusine indica, the “Inhibition rate (%) Eleusine indica” value is given as 92.0%. In the data set with Amaranthus retroflexus, the “Inhibition rate (%) Amaranthus retroflexus” value is on record as 100%. For the same compound, in the data set on Chenopodium album, the “Inhibition rate (%) Chenopodium album” value turned out to be 100%.

`COc1cc(OC)nc(Sc2cccc(Cl)c2C(=O)O/N=C(\C)c2ccccc2[N+](=O)[O-])n1` [G, (E)-1-(2-nitrophenyl)ethan-1-one O-(2-chloro-6-((4,6-dimethoxypyrimidin-2-yl)thio)benzoyl)oxime] had a melting point of 130 to 134 °C. Besides, the “Inhibition rate (%) Echinochloa crusgalli” value in the data set on Echinochloa crusgalli worked out at 90.4%. Moreover, the “Inhibition rate (%) Portulaca oleracea” value in the data set with Portulaca oleracea is 89.4%. Also, in the data set on Setaria viridis, the “Inhibition rate (%) Setaria viridis” value is given as 60.3%. Also, the “Inhibition rate (%) Eleusine indica” value with Eleusine indica worked out at 84.6%. Further, the “Inhibition rate (%) Amaranthus retroflexus” value in the data set with Amaranthus retroflexus came to 100%. In addition, in the data set with Chenopodium album, the “Inhibition rate (%) Chenopodium album” value was 95.7%.

For `COc1ccc(/C(C)=N/OC(=O)c2c(Cl)cccc2Sc2nc(OC)cc(OC)n2)c(OC)c1` [M, (E)-1-(2,4-dimethoxyphenyl)ethan-1-one O-(2-chloro-6-((4,6-dimethoxypyrimidin-2-yl)thio)benzoyl)oxime], the melting point was in the range of 125 to 129 °C. The “Inhibition rate (%) Echinochloa crusgalli” value in the data set with Echinochloa crusgalli is reported as 100%. Also, the “Inhibition rate (%) Portulaca oleracea” value in the data set with Portulaca oleracea was 90.9%. For the same compound, the “Inhibition rate (%) Setaria viridis” value in the data set on Setaria viridis is recorded as 77.2%. In the data set on Eleusine indica, the “Inhibition rate (%) Eleusine indica” value is given as 85.6%. For the same compound, in the data set with Amaranthus retroflexus, the “Inhibition rate (%) Amaranthus retroflexus” value is on record as 100%. Further, the “Inhibition rate (%) Chenopodium album” value with Chenopodium album turned out to be 100%.

In the case of `COc1cc(OC)nc(Sc2cccc(Cl)c2C(=O)O/N=C(\C)c2cccc(C)c2)n1` [B, (E)-1-(m-tolyl)ethan-1-one O-(2-chloro-6-((4,6-dimethoxypyrimidin-2-yl)thio)benzoyl) oxime], the melting point lay in the range of 84 to 88 °C. In addition, the “Inhibition rate (%) Echinochloa crusgalli” value with Echinochloa crusgalli stood at 30.3%. The “Inhibition rate (%) Portulaca oleracea” value in the data set with Portulaca oleracea was 60.7%. In addition, in the data set with Setaria viridis, the “Inhibition rate (%) Setaria viridis” value is given as 53.0%. Besides, in the data set on Eleusine indica, the “Inhibition rate (%) Eleusine indica” value came to 53.0%. In addition, the “Inhibition rate (%) Amaranthus retroflexus” value in the data set on Amaranthus retroflexus turned out to be 93.5%. The “Inhibition rate (%) Chenopodium album” value in the data set on Chenopodium album is on record as 87.0%.

On to `COc1cc(OC)nc(Sc2cccc(Cl)c2C(=O)O)n1` [Pyrithiobac-sodium, reference compound], for which the “Inhibition rate (%) Echinochloa crusgalli” value with Echinochloa crusgalli is on record as 60.6%. Further, in the data set with Portulaca oleracea, the “Inhibition rate (%) Portulaca oleracea” value was 96.8%. In the data set with Setaria viridis, the “Inhibition rate (%) Setaria viridis” value is recorded as 65.4%. In addition, the “Inhibition rate (%) Eleusine indica” value in the data set on Eleusine indica was 44.7%. Besides, the “Inhibition rate (%) Amaranthus retroflexus” value with Amaranthus retroflexus was 95.2%. Moreover, the “Inhibition rate (%) Chenopodium album” value in the data set on Chenopodium album is listed as 93.9%.

`COc1cc(OC)nc(Sc2cccc(Cl)c2C(=O)O/N=C(\C)c2cccc([N+](=O)[O-])c2)n1` [H, (E)-1-(3-nitrophenyl)ethan-1-one O-(2-chloro-6-((4,6-dimethoxypyrimidin-2-yl)thio)benzoyl)oxime] showed a melting point of 155 to 159 °C. The “Inhibition rate (%) Echinochloa crusgalli” value in the data set with Echinochloa crusgalli was 87.7%. Further, in the data set on Portulaca oleracea, the “Inhibition rate (%) Portulaca oleracea” value came to 85.9%. Further, the “Inhibition rate (%) Setaria viridis” value in the data set with Setaria viridis is on record as 64.6%. For the same compound, the “Inhibition rate (%) Eleusine indica” value in the data set on Eleusine indica turned out to be 88.5%. Further, the “Inhibition rate (%) Amaranthus retroflexus” value in the data set on Amaranthus retroflexus was 100%. Further, the “Inhibition rate (%) Chenopodium album” value in the data set on Chenopodium album is on record as 90.4%.

On to `COc1cc(OC)nc(Sc2cccc(Cl)c2C(=O)O/N=C(\C)c2ccc([N+](=O)[O-])cc2)n1` [I, (E)-1-(4-nitrophenyl)ethan-1-one O-(2-chloro-6-((4,6-dimethoxypyrimidin-2-yl)thio)benzoyl)oxime], for which the melting point was in the range of 153 to 157 °C. Besides, the “Inhibition rate (%) Echinochloa crusgalli” value in the data set on Echinochloa crusgalli was 95.7%. Besides, the “Inhibition rate (%) Portulaca oleracea” value with Portulaca oleracea is given as 94.5%. Moreover, in the data set on Setaria viridis, the “Inhibition rate (%) Setaria viridis” value turned out to be 75.1%. Further, the “Inhibition rate (%) Eleusine indica” value in the data set on Eleusine indica was 89.7%. Also, in the data set on Amaranthus retroflexus, the “Inhibition rate (%) Amaranthus retroflexus” value came out at 100%. Besides, the “Inhibition rate (%) Chenopodium album” value with Chenopodium album stood at 96.8%.
